# Measured values reported in patent publication US8258175B2, “Isoindolin-1-one derivatives” (Cancer Research Technology Limited, priority 2004, dated 2012).
# What was measured:
# [1] = molecular target: T1, MDM2-p53 interaction (Homo sapiens, UniProt Q00987); assay: ELISA assay of MDM2-p53 complex formation (MDM2 binding to immobilised IP3 p53-derived peptide)
# T1 construct: made in house; host or cells: in vitro translation (cell-free)
# Method: Streptavidin-coated 96-well plates are used to immobilise a biotin-tagged IP3 p53-derived peptide ([…]). This is a peptide analogue derived from the p53 binding site for MDM2 ([…]). […] Aliquots of MDM2 generated by in vitro translation are pre-incubated for 20 minutes at room temperature (i.e. 20-25° C.) with test compounds and controls, before transfer into the IP3-coated 96-well plates. Following a further incubation period of 90 minutes at 4° C., the plates are washed to remove unbound MDM2 and the residual bound MDM2 is detected using a primary monoclonal antibody (MDM2 Ab-1, clone IF2, Oncogene Research Products) and HRP-conjugated secondary antibody (Goat anti-mouse, Dako PO447). The HRP (horseradish peroxidase) is measured by a chemiluminescence reaction using standard reagents (Amersham Pharmacia™ RPN 2106) and an automatic injection 96-well plate illuminometer (EG & G Berthold Microplate LB 96V).
# Compound NU8231 is currently included as a standard “lead compound” positive control. […] The AP peptide is included as a positive control for biological evaluation of the isoindolinones in the cell free binding assays.
# All compounds are dissolved in DMSO and tested at three standard concentrations (initially 20 μM, 100 μM and 500 μM) in the presence of a fixed final concentration of 5% DMSO. The percentage inhibition of complex formation is expressed relative to a DMSO only control and an IC50, defined as the concentration required for 50% inhibition of MDM2-p53 complex formation, determined by interpolation.
# [2] = n=3 independent determinations, 5% DMSO, interpolated from three standard concentrations
# T1 sequence (Q00987 whole entry): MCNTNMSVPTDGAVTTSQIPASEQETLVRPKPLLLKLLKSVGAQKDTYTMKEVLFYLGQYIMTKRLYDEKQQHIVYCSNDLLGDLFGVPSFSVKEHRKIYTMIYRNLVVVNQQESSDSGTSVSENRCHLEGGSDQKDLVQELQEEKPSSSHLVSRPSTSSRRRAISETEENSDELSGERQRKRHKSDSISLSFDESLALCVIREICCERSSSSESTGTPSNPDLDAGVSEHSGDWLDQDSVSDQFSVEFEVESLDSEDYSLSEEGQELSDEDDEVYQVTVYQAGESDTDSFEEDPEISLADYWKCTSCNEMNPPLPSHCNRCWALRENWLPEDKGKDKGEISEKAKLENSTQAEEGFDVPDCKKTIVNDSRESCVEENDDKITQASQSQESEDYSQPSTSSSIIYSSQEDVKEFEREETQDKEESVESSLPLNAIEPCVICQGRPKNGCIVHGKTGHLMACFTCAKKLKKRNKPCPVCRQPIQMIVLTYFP
Compound,"IC50 [1, 2]",melting point,IC50 ([1]; nM)
"CCCN1C(=O)c2ccccc2C1(OCCCO)c1ccccc1 (stereo not drawn) [NU8033, 3-(3-Hydroxy-propoxy)-3-phenyl-2-propyl-2,3-dihydro-1H-isoindolin-1-one]",> 500000 nM,–,–
"O=C1c2ccccc2C(OCCCO)(c2ccccc2)N1Cc1ccccc1 (stereo not drawn) [NU8034, 2-Benzyl-3-(3-Hydroxy-propoxy)-3-phenyl-2,3-dihydro-1H-isoindolin-1-one]",245000 ± 11000 nM,–,–
"CC(C)(C)c1ccc(COC2(c3ccccc3)c3ccccc3C(=O)N2Cc2ccccc2)cc1 (stereo not drawn) [NU8113, 2-Benzyl-3-(4-tert-butyl-benzyloxy)-3-phenyl-2,3-dihydro-isoindolin-1-one]",92000 ± 11000 nM,107 to 108 °C,–
"O=C1c2ccccc2C(OCCc2ccccn2)(c2ccccc2)N1Cc1ccccc1 (stereo not drawn) [NU8133, 2-Benzyl-3-phenyl-3-(2-pyridin-2-yl-ethoxy)-2,3-dihydro-isoindolin-1-one]",206000 ± 130000 nM,–,–
"CC(C)COc1ccc(C2(NC(=O)c3ccccc3)c3ccccc3C(=O)N2CC2CCCCC2)cc1 (stereo not drawn) [NU8200, N-[2-Cyclohexylmethyl-1-(4-isobutoxyphenyl)-3-oxo-2,3-dihydro-1H-isoindolin-1-yl]benzamide]",123000 ± 30000 nM,–,–
"CCOc1ccc(C2(NC(=O)c3ccccc3)c3ccccc3C(=O)N2CC2CCCCC2)cc1 (stereo not drawn) [NU8201, N-[2-Cyclohexylmethyl 1-(4-ethoxyphenyl)-3-oxo-2,3-dihydro-1H-isoindolin-1-yl]benzamide]",209000 ± 28000 nM,–,–
"CSc1ccc(C2(NC(=O)c3ccccc3)c3ccccc3C(=O)N2CC2CCCCC2)cc1 (stereo not drawn) [NU8202, N-[2-Cyclohexylmethyl-1-(4-methylsulfanylphenyl)-3-oxo-2,3-dihydro-1H-isoindolin-1-yl]benzamide]",82000 ± 16000 nM,–,–
"O=C1c2ccccc2C(OCCNc2ccccc2)(c2ccccc2)N1Cc1ccccc1 (stereo not drawn) [NU8204, 2-Benzyl-3-phenyl-3-(2-phenylaminoethoxy)-2,3-dihydroisoindolin-1-one]",116000 ± 20000 nM,–,–
"COc1cc(COC2(c3ccccc3)c3ccccc3C(=O)N2Cc2ccccc2)cc(OC)c1O (stereo not drawn) [NU8205, 2-Benzyl-3-(4-hydroxy-3,5-dimethoxybenzyloxy)-3-phenyl-2,3-dihydro-isoindolin-1-one]",17900 ± 300 nM,–,–
"CCCOC1(c2ccccc2)c2ccccc2C(=O)N1CCO (stereo not drawn) [NU8206, 2-(2-Hydroxyethyl)-3-phenyl-3-propoxy-2,3-dihydroisoindolin-1-one]",> 500000 nM,–,–
"O=C1c2ccccc2C(OCCN2CCNCC2)(c2ccccc2)N1Cc1ccccc1 (stereo not drawn) [NU8211, 2-Benzyl-3-phenyl-3-(2-piperazin-1-ylethoxy)-2,3-dihydroisoindolin-1-one]",315000 ± 72000 nM,–,–
"CC(=O)NCCN1C(=O)c2ccccc2C1(OCc1ccc(C(C)(C)C)cc1)c1ccccc1 (stereo not drawn) [NU8213, N-{2-[1-(4-t-Butyl-benzyloxy)-3-oxo-1-phenyl-1,3-dihydro-isoindolin-2-yl]-ethyl}-acetamide]",14400 ± 300 nM,–,–
"CC(C)(C)c1ccc(COC2(c3ccccc3)c3ccccc3C(=O)N2CCc2cnc[nH]2)cc1 (stereo not drawn) [NU8214, 3-(4-t-Butylbenzyloxy)-2-[2-(3H-imidazol-4-yl)-ethyl]-3-phenyl-2,3-dihydroisoindolin-1-one]",214000 ± 56000 nM,–,–
"C=C(C)C(=O)OCCN1C(=O)c2ccccc2C1(NC(CO)C(O)c1ccccc1)c1ccccc1 (stereo not drawn) [NU8216, 2-Methylacrylic acid 2-[1-(2-hydroxy-1-hydroxymethyl-2-phenylethylamino)-3-oxo-1-phenyl-1,3-dihydroisoindolin-2-yl]ethyl ester]",103000 ± 43000 nM,–,–
"CCCN1C(=O)c2ccccc2C1(OCc1ccc(C(C)(C)C)cc1)c1ccc(Cl)cc1 (stereo not drawn) [NU8221, 3-(4-tert-Butyl-benzyloxy)-3-(4-chlorophenyl)-2-propyl-2,3-dihydroisoindolin-1-one]",187000 ± 38000 nM,116.5 to 117.6 °C,–
"CCCN1C(=O)c2ccccc2C1(OCCc1ccccn1)c1ccccc1 (stereo not drawn) [NU8224, 3-Phenyl-2-propyl-3-(2-pyridin-2-yl-ethoxy)-2,3-dihydroisoindolin-1-one]",–,122.3 to 124.1 °C,–
"COc1ccc(COC2(c3ccccc3)c3ccccc3C(=O)N2Cc2ccccc2)cc1 (stereo not drawn) [NU8226, 2-Benzyl-3-(4-methoxybenzyloxy)-3-phenyl-2,3-dihydroisoindolin-1-one]",456000 ± 44000 nM,–,–
"C=CCOc1c(OC)cc(COC2(c3ccc(Cl)cc3)c3ccccc3C(=O)N2CCC)cc1OC (stereo not drawn) [NU8232, 3-(4-Allyloxy-3,5-dimethoxybenzyloxy)-3-(4-chlorophenyl)-2-propyl-2,3-dihydroisoindolin-1-one]",264000 ± 38000 nM,–,–
"CCCN1C(=O)c2ccccc2C1(OCc1ccc(C(C)(C)C)cc1)c1ccc(OCOCC[Si](C)(C)C)cc1 (stereo not drawn) [NU8233, 3-(4-tert-Butylbenzyloxy)-2-propyl-3-[4-(2-trimethylsilanylethoxymethoxy)-phenyl]-2,3-dihydroisoindolin-1-one]",464000 ± 31000 nM,–,–

Compound,"IC50 [1, 2]",melting point,IC50 ([1]; nM)
"CCCN1C(=O)c2ccccc2C1(OCCCO)c1ccc(OCOCC[Si](C)(C)C)cc1 (stereo not drawn) [NU8234, 3-(3-Hydroxypropoxy)-2-propyl-3-[4-(2-trimethylsilanylethoxymethoxy)-phenyl]-2,3-dihydroisoindolin-1-one]",476000 ± 24000 nM,–,–
"CCCN1C(=O)c2ccccc2C1(OCCc1ccccn1)c1ccc(OCOCC[Si](C)(C)C)cc1 (stereo not drawn) [NU8235, 2-Propyl-3-(2-pyridin-2-yl-ethoxy)-3-[4-(2-trimethylsilanylethoxymethoxy)-phenyl]-2,3-dihydroisoindolin-1-one]",312000 ± 22000 nM,–,–
"CCCN1C(=O)c2ccccc2C1(OCc1cc(OC)c(O)c(OC)c1)c1ccc(OCOCC[Si](C)(C)C)cc1 (stereo not drawn) [NU8236, 3-(4-Hydroxy-3,5-dimethoxybenzyloxy)-2-propyl-3-[4-(2-trimethylsilanylethoxy-methoxy)-phenyl]-2,3-dihydroisoindolin-1-one]",118000 ± 24000 nM,–,–
"CCCN1C(=O)c2ccccc2C1(OCc1ccccc1)c1ccc(Cl)cc1 (stereo not drawn) [NU8237, 3-Benzyloxy-3-(4-chlorophenyl)-2-propyl-2,3-dihydroisoindolin-1-one]",409000 ± 43000 nM,–,–
"COc1cc(COC2(c3ccc(OCOCC[Si](C)(C)C)cc3)c3ccccc3C(=O)N2Cc2ccccc2)cc(OC)c1O (stereo not drawn) [NU8238, 2-Benzyl-3-(4-hydroxy-3,5-dimethoxybenzyloxy)-3-[4-(2-trimethylsilanylethoxy-methoxy)phenyl]-2,3-dihydroisoindolin-1-one]",257000 ± 34000 nM,–,–
"C[Si](C)(C)CCOCOc1ccc(C2(O)c3ccccc3C(=O)N2Cc2ccccc2)cc1 (stereo not drawn) [NU8239, 2-Benzyl-3-hydroxy-3-[4-(2-trimethylsilanylethoxymethoxy)phenyl]-2,3-dihydroisoindol-1-one]",366000 ± 61000 nM,–,–
C=CCOc1ccc(COC2(c3ccc(Cl)cc3)c3ccccc3C(=O)N2CCC)cc1 (stereo not drawn) [NU8240],304000 ± 42000 nM,–,–
"C=CCOc1cc(COC2(c3ccc(Cl)cc3)c3ccccc3C(=O)N2CCC)ccc1OC (stereo not drawn) [NU8241, 3-(4-chlorophenyl)-3-(3-allyloxy-4-methoxy-benzyloxy)-2-propyl-2,3-dihydroisoindolin-1-one]",83000 ± 5000 nM,–,–
"C=CCOc1ccc(COC2(c3ccc(Cl)cc3)c3ccccc3C(=O)N2CCC)cc1OC (stereo not drawn) [NU8242, 3-(4-chlorophenyl)-3-(4-allyloxy-3-methoxy-benzyloxy)-2-propyl-2,3-dihydroisoindolin-1-one]",272000 ± 5000 nM,–,–
CCCN1C(=O)c2ccccc2C1(OCc1ccc(O)cc1)c1ccc(Cl)cc1 (stereo not drawn) [NU8243],7700 ± 300 nM,–,–
CCCN1C(=O)c2ccccc2C1(OCc1ccc(OC)c(O)c1)c1ccc(Cl)cc1 (stereo not drawn) [NU8244],9500 ± 1900 nM,–,–
"C#CCN1C(=O)c2ccccc2C1(OCc1cc(OC)c(O)c(OC)c1)c1ccc(Cl)cc1 (stereo not drawn) [NU8245, 3-(4-Chlorophenyl)-3-(4-hydroxy-3,5-dimethoxybenzyloxy)-2-prop-2-ynyl-2,3-dihydroisoindolin-1-one]",23000 ± 4000 nM,–,–
"CCCN1C(=O)c2ccccc2C1(OC1CCC(O)C1)c1ccc(Cl)cc1 (stereo not drawn) [NU8253, 3-(4-Chlorophenyl)-3-(3-hydroxycyclopentyloxy)-2-propylisoindolin-1-one]",3000 ± 700 nM,–,–
"O=C1c2ccccc2C(OC2CCC(O)C2)(c2ccc(Cl)cc2)N1CCc1ccccc1 (stereo not drawn) [NU8257, 3-(4-Chlorophenyl)-3-(3-hydroxycyclopentyloxy)-2-phenethylisoindolin-1-one]",5500 ± 1700 nM,–,–
"O=C1c2ccccc2C(OC2CCC(O)C2)(c2ccc(Cl)cc2)N1Cc1ccc([N+](=O)[O-])cc1 (stereo not drawn) [NU8261, 3-(4-Chlorophenyl)-3-(3-hydroxycyclopentyloxy)-2-(4-nitrobenzyl)-2,3-dihydroisoindolin-1-one]",–,–,700 nM
"O=C1c2ccccc2C(O)(c2ccc(Cl)cc2)N1CC1CC1 (stereo not drawn) [NU8265, 3-(4-Chlorophenyl)-2-cyclopropylmethyl-3-hydroxy-2,3-dihydroisoindolin-1-one]",> 20000 nM,–,–
"O=C1c2ccccc2C(OC2CCC(O)C2)(c2ccc(Cl)cc2)N1Cc1ccc(Cl)cc1 (stereo not drawn) [NU8274, 2-(4-Chlorobenzyl)-3-(4-chlorophenyl)-3-(3-hydroxycyclopentyloxy)isoindolin-1-one]",2400 ± 700 nM,–,–
"O=C1c2ccccc2C(OC2CCC(O)C2)(c2ccc(Cl)cc2)N1CC1CC1 (stereo not drawn) [NU8280, 3-(4-Chlorophenyl)-2-cyclopropylmethyl-3-(3-hydroxycyclopentyloxy)-2,3-dihydro-isoindolin-1-one]",15400 ± 2300 nM,–,–
